Each structure is given as a SMILES string. pIC50: −log10 of the molar value.

The subject of the assay is PC3 cells. The assay can be described thus: NAMPT Cell Proliferation Assay. The note with it: Homo sapiens, PC-3, 120 h, 5 days incubation, cell viability by Cell Titer Glo. Type of assay: cell-based. The method, then:
NAMPT Cell Proliferation Assay
PC3 cells were seeded in 96-well black plates (Corning #3904) at 500 cells)Owell in 90 µl of RPMI media containing 10% heat-inactivated FBS and incubated overnight at 37° C. and 5% CO2 to allow cells to attach to wells. The following day, test compounds were serially diluted in neat DMSO to 1000× final concentrations prior to dilution with RPMI media to 10× and 1% DMSO. […] of the 10× compounds were then transferred to wells containing cells to produce a dose response of 10-fold dilutions from […] to 1×10^−[…]. Cells were incubated for 5 days at 37° C. and 5% CO2, then cell viability was measured using Cell Titer Glo reagent (Promega #G7571). Percent inhibition values were calculated and fitted to a sigmoidal dose response curves using Assay Explorer software to determine IC50s.
Regarding `O=C(Nc1ccc(C2CCN(C(=O)Cc3ccc(Cl)cc3)CC2)cc1)[C@H]1CCN(c2cccnn2)C1` [Example 686, (3S)-N-(4-{1-[(4-chlorophenyl)acetyl]piperidin-4-yl}phenyl)-1-(pyridazin-3-yl)pyrrolidine-3-carboxamide], the pIC50 is 7.19. For `O=C(Nc1ccc(OC2CN(C(=O)c3ccc(F)cc3)C2)cc1)C1CN(c2ccnnc2)C1` [Example 199, N-(4-{[1-(4-fluorobenzoyl)azetidin-3-yl]oxy}phenyl)-1-(pyridazin-4-yl)azetidine-3-carboxamide] the value was 7.01; for `CN1CCN(CC(=O)N2CCC(c3ccc(NC(=O)C4CN(c5cccnc5)C4)cc3)CC2)CC1` [Example 113, N-(4-{1-[(4-methylpiperazin-1-yl)acetyl]piperidin-4-yl}phenyl)-1-(pyridin-3-yl)azetidine-3-carboxamide], 8.20; for `O=C(Nc1ccc(C2CC3CCC(C2)N3C(=O)c2ccccc2F)cc1)C1CN(c2cccnn2)C1` (stereo not shown) [Example 843, N-{4-[8-(2-fluorobenzoyl)-8-azabicyclo[3.2.1]oct-3-yl]phenyl}-1-(pyridazin-3-yl)azetidine-3-carboxamide], 9.21.

In turn, `O=C(Nc1ccc(OC2CCN(C(=O)CC3CCOCC3)CC2)cc1)[C@H]1CCN(c2cccnc2)C1` [Example 11, (3S)-1-(pyridin-3-yl)-N-(4-{[1-(tetrahydro-2H-pyran-4-ylacetyl)piperidin-4-yl]oxy}phenyl)pyrrolidine-3-carboxamide] had a pIC50 of 7.64. Take `Cc1ccccc1C(=O)N1CCC(c2ccc(NC(=O)C3CN(c4cccnn4)C3)c(F)c2)CC1` [Example 831, N-{2-fluoro-4-[1-(2-methylbenzoyl)piperidin-4-yl]phenyl}-1-(pyridazin-3-yl)azetidine-3-carboxamide]: the pIC50 was 8.14. `O=C(Nc1ccc(C2CCN(C(=O)Cc3cccc(F)c3)CC2)cc1)[C@H]1CCN(c2cccnn2)C1` [Example 714, (3S)-N-(4-{1-[(3-fluorophenyl)acetyl]piperidin-4-yl}phenyl)-1-(pyridazin-3-yl)pyrrolidine-3-carboxamide] showed a pIC50 of 7.75. Compound `CN1CCC(CC(=O)N2CCC(c3ccc(C(=O)N[C@H]4CCN(c5cccnn5)C4)s3)CC2)CC1` [Example 767, 5-{1-[(1-methylpiperidin-4-yl)acetyl]piperidin-4-yl}-N-[(3S)-1-(pyridazin-3-yl)pyrrolidin-3-yl]thiophene-2-carboxamide] gave a pIC50 of 5.89.

`CC(C)CC(=O)N1CC[C@@H](Oc2ccc(NC(=O)C3CN(c4cccnn4)C3)cc2)C1` [Example 520, N-(4-{[(3R)-1-(3-methylbutanoyl)pyrrolidin-3-yl]oxy}phenyl)-1-(pyridazin-3-yl)azetidine-3-carboxamide] had a pIC50 of 9.33. For `O=C(Nc1ccc(C2CCN(C(=O)C3CCCCC3)CC2)cc1)C1CN(c2cccnc2)C1` [Example 136, N-{4-[1-(cyclohexylcarbonyl)piperidin-4-yl]phenyl}-1-(pyridin-3-yl)azetidine-3-carboxamide], the pIC50 is 9.64.

`CC(C)C(=O)N1CCC(Oc2ccc(NC(=O)C3CN(c4ccnnc4)C3)cc2)CC1` [Example 294, N-(4-{[1-(2-methylpropanoyl)piperidin-4-yl]oxy}phenyl)-1-(pyridazin-4-yl)azetidine-3-carboxamide]: the pIC50 was 7.08. With `O=C(Nc1ccc(C2CCN(C(=O)c3ccccc3F)CC2)cc1)C1CN(c2ccnnc2)C1` [Example 551, N-{4-[1-(2-fluorobenzoyl)piperidin-4-yl]phenyl}-1-(pyridazin-4-yl)azetidine-3-carboxamide], the pIC50 is 9.32. Regarding `CC(C)(C)OC(=O)N1CCN(C(C)(C)C(=O)N2CCC(c3ccc(NC(=O)C4CN(c5cccnc5)C4)cc3)CC2)CC1` [Example 609, tert-butyl 4-(2-methyl-1-oxo-1-{4-[4-({[1-(pyridin-3-yl)azetidin-3-yl]carbonyl}amino)phenyl]piperidin-1-yl}propan-2-yl)piperazine-1-carboxylate], the negative-log IC50 (pIC50) was 8.69. `CC(C)(C)C(=O)N1CCC(S(=O)(=O)c2ccc(NC(=O)C3CN(c4cccnn4)C3)cc2)CC1` [Example 594, N-(4-{[1-(2,2-dimethylpropanoyl)piperidin-4-yl]sulfonyl}phenyl)-1-(pyridazin-3-yl)azetidine-3-carboxamide] gave a pIC50 of 7.32. For the compound `CC(C)(C)C(=O)N1CC[C@H](Oc2ccc(NC(=O)[C@H]3CCN(c4cccnn4)C3)cc2)C1` [Example 827, (3S)—N-(4-{[(3S)-1-(2,2-dimethylpropanoyl)pyrrolidin-3-yl]oxy}phenyl)-1-(pyridazin-3-yl)pyrrolidine-3-carboxamide], the pIC50 was 7.13.

Compound `O=C(Nc1ccc(O[C@@H]2CCN(C(=O)c3ccc(OC(F)(F)F)cc3)C2)cc1)C1CN(c2ccnnc2)C1` [Example 477, 1-(pyridazin-4-yl)-N-[4-({(3R)-1-[4-(trifluoromethoxy)benzoyl]pyrrolidin-3-yl}oxy)phenyl]azetidine-3-carboxamide] showed a pIC50 of 6.63.

For the compound `O=C(Nc1ccc(C2CCN(C(=O)Cc3ccc(C(F)(F)F)cc3)CC2)cc1)C1CN(c2cccnn2)C1` [Example 371, 1-(pyridazin-3-yl)-N-[4-(1-{[4-(trifluoromethyl)phenyl]acetyl}piperidin-4-yl)phenyl]azetidine-3-carboxamide], the pIC50 was 8.05. In turn, `CC1(C(=O)N2CCC(c3ccc(NC(=O)C4CN(c5cccnn5)C4)cc3)CC2)CCCCC1` [Example 437, N-(4-{1-[(1-methylcyclohexyl)carbonyl]piperidin-4-yl}phenyl)-1-(pyridazin-3-yl)azetidine-3-carboxamide] had a pIC50 of 9.01.

The compound `COc1cccc(C(=O)N2CCC(S(=O)(=O)c3ccc(NC(=O)C4CN(c5cccnn5)C4)cc3)CC2)c1` [Example 596, N-(4-{[1-(3-methoxybenzoyl)piperidin-4-yl]sulfonyl}phenyl)-1-(pyridazin-3-yl)azetidine-3-carboxamide] had a pIC50 of 7.07. For `Cc1ncccc1N1CC(C(=O)Nc2ccc(C3CCN(C(=O)C4(C)CC4)CC3)cc2)C1` [Example 170, N-(4-{1-[(1-methylcyclopropyl)carbonyl]piperidin-4-yl}phenyl)-1-(2-methylpyridin-3-yl)azetidine-3-carboxamide], the pIC50 was 7.18. With `CC(C)C(=O)N1CCC(c2ccc(NC(=O)C3CN(c4cccnn4)C3)cc2)CC1` [Example 147, N-{4-[1-(2-methylpropanoyl)piperidin-4-yl]phenyl}-1-(pyridazin-3-yl)azetidine-3-carboxamide], the pIC50 is 9.02. `CC1(Cn2cc(-c3ccc(NC(=O)[C@H]4CCN(c5cccnn5)C4)cc3)cn2)CCOCC1` [Example 756, (3S)—N-(4-{1-[(4-methyltetrahydro-2H-pyran-4-yl)methyl]-1H-pyrazol-4-yl}phenyl)-1-(pyridazin-3-yl)pyrrolidine-3-carboxamide] had a pIC50 of 8.04.

`O=C(Nc1ccc(S(=O)(=O)C2CCN(C(=O)C3(c4ccccc4)CC3)CC2)cc1)C1CN(c2cccnn2)C1` [Example 601, N-[4-({1-[(1-phenylcyclopropyl)carbonyl]piperidin-4-yl}sulfonyl)phenyl]-1-(pyridazin-3-yl)azetidine-3-carboxamide] had a negative logarithm of the IC50 (pIC50) of 7.01.

`CC(C)CCC(=O)N1CCC(c2ccc(NC(=O)C3CN(c4cccnc4)C3)cc2)CC1` [Example 116, N-{4-[1-(4-methylpentanoyl)piperidin-4-yl]phenyl}-1-(pyridin-3-yl)azetidine-3-carboxamide]: the pIC50 is 9.19. For `O=C(Nc1ccc(OC2CCN(C(=O)CC3CCOCC3)CC2)cc1)C1CN(c2cccnc2)C1` [Example 1, 1-(pyridin-3-yl)-N-(4-{[1-(tetrahydro-2H-pyran-4-ylacetyl)piperidin-4-yl]oxy}phenyl)azetidine-3-carboxamide] the value was 8.18; for `Cc1ccsc1C(=O)N1CCC(Oc2ccc(NC(=O)C3CN(c4cccnc4)C3)cc2)CC1` [Example 59, N-[4-({1-[(3-methylthiophen-2-yl)carbonyl]piperidin-4-yl}oxy)phenyl]-1-(pyridin-3-yl)azetidine-3-carboxamide], 8.21; for `Cc1ccc(C(=O)N2CCC(c3ccc(NC(=O)C4CN(c5cccnc5C)C4)cc3)CC2)s1` [Example 186, 1-(2-methylpyridin-3-yl)-N-(4-{1-[(5-methylthiophen-2-yl)carbonyl]piperidin-4-yl}phenyl)azetidine-3-carboxamide], 6.20. For `O=C(Nc1ccc(OC2CCN(C(=O)[C@@H]3CCCO3)CC2)cc1)[C@H]1CCN(c2cccnc2)C1` [Example 13, (3S)-1-(pyridin-3-yl)-N-[4-({1-[(2S)-tetrahydrofuran-2-ylcarbonyl]piperidin-4-yl}oxy)phenyl]pyrrolidine-3-carboxamide] the value was 7.10; for `O=C(Nc1ccc(OC2CCN(C(=O)CC3C[C@@H]4CC[C@H]3C4)CC2)cc1)C1CN(c2cccnc2)C1` (stereo partly drawn) [Example 36, N-[4-({1-[(1S,4R)-bicyclo[2.2.1]hept-2-ylacetyl]piperidin-4-yl}oxy)phenyl]-1-(pyridin-3-yl)azetidine-3-carboxamide], 8.02; for `O=C(Nc1ccc(C2CCN(C(=O)c3ccccc3F)CC2)cc1)[C@@H]1CCN(c2cccnn2)C1` [Example 794, (3R)—N-{4-[1-(2-fluorobenzoyl)piperidin-4-yl]phenyl}-1-(pyridazin-3-yl)pyrrolidine-3-carboxamide], 6.71. `CC(C)(O)Cn1cc(-c2ccc(NC(=O)C3CN(c4cccnn4)C3)cc2)cn1` [Example 753, N-{4-[1-(2-hydroxy-2-methylpropyl)-1H-pyrazol-4-yl]phenyl}-1-(pyridazin-3-yl)azetidine-3-carboxamide] had a pIC50 of 8.05.

By pIC50 is commonly meant −log10 of the IC50, conventionally taken in molar units.

For the origin of these results see patent publication US20130303509A1, “NAMPT INHIBITORS” (AbbVie Inc., priority 2012, published 2013).
